Measurements from ChEMBL document CHEMBL1127015, “Centrally acting serotonergic and dopaminergic agents. 1. Synthesis and structure-activity relationships of 2,3,3a,4,5,9b-hexahydro-1H-benz[e]indole derivatives” (J Med Chem, 1993).
Values joined by “and” are separate entries in the source; they are usually repeats but may differ in a detail not shown here. Equal values may be shown once.

What was measured:
[1] = system: Rattus norvegicus; test: Effect on the synthesis rates of dopamine in the rat ventral limbic brain region at 12 micro mol/kg.; assay type: functional, Limbic system
[2] = system: Mus musculus; test: Maximum decrease in temperature when compound is administered through peroral route; assay type: functional
[3] = system: Felis catus; test: Effective dose at which the sympathetic nerve activity (SND) has been reduced to 50% of the pretreatment value in anesthetized cat; assay type: functional
[4] = system: Mus musculus; test: Effective dose on hypothermia in mouse when administered through peroral route; assay type: functional; settings: po
[5] = system: Rattus norvegicus; test: Effect on the synthesis rates of serotonin in the rat ventral limbic brain region at 12 micro mol/kg.; assay type: functional, Limbic system
[6] = species on record: Felis catus; test: Percent of arterial blood pressure at sympathetic nerve activity (SND) dose value was determined; assay type: functional
[7] = system: Rattus norvegicus; test: Inhibition of firing rates of serotonergic neurons in the dorsal raphe nucleus by intravenous injection in rats; assay type: functional
[8] = system: Mus musculus; test: Maximum decrease in temperature when compound is administered subcutaneously; assay type: functional
[9] = system: Felis catus; test: Maximum decrease of arterial blood pressure at sympathetic nerve activity (SND) in anesthetized cat has been observed following 1 mg/kg dose; assay type: functional; design: scale not given: the % may be the effect or the level left
[10] = system: Felis catus; test: Maximum decrease of sympathetic nerve activity (SND) in anesthetized cat; assay type: functional; design: scale not given: the % may be the effect or the level left
[11] = target: T1, D(2) dopamine receptor (Rattus norvegicus, UniProt P61169); test: Inhibitory concentration against [3H]raclopride-labeled dopamine receptor D2 in rat striatum; assay type: tissue-based
[12] = system: Mus musculus; test: Effective dose on hypothermia in mouse when administered subcutaneously; assay type: functional; settings: sc
[13] = system: Mus musculus; test: Antagonism of apomorphine in reserpinized mice when a dose of 3.8 micro mol/kg is administered intraperitoneally; assay type: functional
[14] = system: Mus musculus; test: Antagonism of apomorphine for 0-10 minutes in reserpinized mice when a dose of 3.8 micro mol/kg is administered intraperitoneally; assay type: functional
[15] = system: Mus musculus; test: Antagonism of apomorphine for 10-20 minutes in reserpinized mice when a dose of 38 micro mol/kg is administered intraperitoneally; assay type: functional
[16] = system: Mus musculus; test: Antagonism of apomorphine effects for 0-10 minutes in reserpinized mice following 0.4 umol/kg i.p.; assay type: functional; design: unit not given beside the values
[17] = system: Mus musculus; test: Increase in locomotor activity in reserpinized mice following 0.4 umol/kg i.p.; assay type: functional
[18] = system: Rattus norvegicus; test: Inhibition of firing rates of dopaminergic neurons in the substantia nigra pars compacta by intravenous injection in rats.; assay type: functional; settings: Rattus norvegicus, Substantia nigra pars compacta, iv; read-out: ED50
[19] = system: Mus musculus; test: Antagonism of apomorphine in reserpinized mice when a dose of 38 micro mol/kg is administered intraperitoneally; assay type: functional
[20] = species on record: Rattus norvegicus; test: Effect on the synthesis rates of serotonin (5-HTP accumulation) in the rat ventral limbic brain region at 3.8uMkg; assay type: functional, Limbic system
[21] = system: Mus musculus; test: Ability to stimulate dopaminergic systems by effect on locomotor activity in reserpinized mice when a dose of 3.8 micro mol/kg is administered intraperitoneally; assay type: functional
[22] = system: Mus musculus; test: Ability to stimulate dopaminergic systems by effect on locomotor activity in reserpinized mice when a dose of 38 micro mol/kg is administered intraperitoneally; assay type: functional
[23] = species on record: Rattus norvegicus; test: Effect on the synthesis rates of serotonin (5-HTP accumulation) in the rat ventral limbic brain region at 3.8uMkg.; assay type: functional, Limbic system
[24] = target: T2, D(2) dopamine receptor (Homo sapiens, UniProt P14416); test: Intrinsic activity from GTP shift using membranes from CHO cells transfected with mammalian dopamine receptor D2.; assay type: cell membranes
[25] = target: T2, D(2) dopamine receptor; test: Binding affinity against [3H]U-86,170-labeled dopamine receptor D2 in cloned CHO cells; assay type: cell-based
[26] = system: Mus musculus; test: Antagonism of apomorphine for 10-20 minutes in reserpinized mice when a dose of 3.8 micro mol/kg is administered intraperitoneally; assay type: functional
[27] = system: Mus musculus; test: Antagonism of apomorphine effects in reserpinized mice following 0.4 umol/kg i.p.; assay type: functional
[28] = system: Mus musculus; test: Antagonism of apomorphine effects for 10-20 minutes in reserpinized mice following 0.4 umol/kg i.p.; assay type: functional
[29] = system: Mus musculus; test: Antagonism of apomorphine for 0-10 minutes in reserpinized mice when a dose of 38 micro mol/kg is administered intraperitoneally; assay type: functional
[30] = species on record: Rattus norvegicus; test: Effect on the synthesis rates of serotonin (5-HTP accumulation) in the rat ventral limbic brain region at 10.2uMkg.; assay type: functional, Limbic system
[31] = target: T1, D(2) dopamine receptor; test: Binding affinity against [3H]raclopride-labeled dopamine receptor D2 in rat striatum.; assay type: tissue-based
[32] = system: Rattus norvegicus; test: Effect on the synthesis rates of serotonin in the rat ventral limbic brain region 4.0 micro mol/kg. Values are given as percent change from the control; assay type: functional, Limbic system
[33] = system: Rattus norvegicus; test: Effect on the synthesis rates of dopamine in the rat ventral limbic brain region at 4.0 micro mol/kg. Values are given as percent change from the control (*p<0.05); assay type: functional, Limbic system
[34] = system: Mus musculus; test: Effective dose on hypothermia in mouse when administered subcutaneously (95% confidence levels); assay type: functional; settings: sc
[35] = target: T1, D(2) dopamine receptor; test: Inhibition concentration against [3H]raclopride-labeled dopamine receptor D2 in rat striatum was estimated by single point experiment. compound was run at 1 uM; assay type: tissue-based
[36] = target: T1, D(2) dopamine receptor; test: Compound was evaluated for the binding affinity against [3H]U-86,170-labeled dopamine receptor D2 in cloned CHO cells; assay type: cell-based
[37] = system: Rattus norvegicus; test: Effect on the synthesis rates of serotonin in the rat ventral limbic brain region at 2.7 micro mol/kg; assay type: functional, Limbic system

T2 sequence (P14416 whole entry): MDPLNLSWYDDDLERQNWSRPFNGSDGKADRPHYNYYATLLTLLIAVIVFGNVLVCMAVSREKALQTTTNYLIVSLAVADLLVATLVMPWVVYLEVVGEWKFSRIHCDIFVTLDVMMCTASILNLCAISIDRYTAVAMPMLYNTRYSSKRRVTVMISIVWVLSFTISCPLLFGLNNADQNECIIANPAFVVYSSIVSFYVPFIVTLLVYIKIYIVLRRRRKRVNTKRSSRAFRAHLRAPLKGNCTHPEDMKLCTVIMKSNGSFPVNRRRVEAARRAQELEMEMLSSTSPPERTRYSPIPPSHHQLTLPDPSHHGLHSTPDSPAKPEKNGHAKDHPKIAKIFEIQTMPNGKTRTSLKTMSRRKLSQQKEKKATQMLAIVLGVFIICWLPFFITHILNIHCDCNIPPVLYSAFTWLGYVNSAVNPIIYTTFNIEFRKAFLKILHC
T1 sequence (P61169 whole entry): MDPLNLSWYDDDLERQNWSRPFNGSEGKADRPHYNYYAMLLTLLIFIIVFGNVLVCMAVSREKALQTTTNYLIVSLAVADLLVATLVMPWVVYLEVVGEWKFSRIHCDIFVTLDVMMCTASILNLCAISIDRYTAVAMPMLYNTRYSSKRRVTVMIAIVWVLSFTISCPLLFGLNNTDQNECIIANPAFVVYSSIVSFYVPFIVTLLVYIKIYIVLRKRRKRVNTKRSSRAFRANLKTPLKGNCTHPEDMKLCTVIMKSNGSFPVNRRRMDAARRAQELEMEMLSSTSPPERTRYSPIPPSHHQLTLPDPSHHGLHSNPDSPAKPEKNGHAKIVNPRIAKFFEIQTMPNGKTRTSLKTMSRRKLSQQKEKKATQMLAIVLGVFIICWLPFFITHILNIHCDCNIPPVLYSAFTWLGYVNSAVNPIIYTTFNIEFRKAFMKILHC

Row | SMILES | Max temperature decrease [8] | Locomotor activity [13] | Locomotor activity [14] | Locomotor activity [15] | Locomotor activity [16] | Locomotor activity [17] | Locomotor activity [19] | Locomotor activity [21] | Locomotor activity [22] | Locomotor activity [26] | Locomotor activity [27] | Locomotor activity [28] | Locomotor activity [29] | also measured
1 | C=CCN1CC[C@H]2c3ccccc3CC[C@H]21 (racemic) | 4.4 | – | – | – | – | – | – | – | – | – | – | – | – | Control [1]: 20%; Max temperature decrease [2]: 4; ED50 [3]: 0.36 µmol/kg; ED50 [4]: 69 µmol/kg; Control [5]: -46%; BP [6]: 76%; ED50 [7]: 0.12 µmol/kg; Control [9]: 60%; Control [10]: 0%; IC50 [11]: > 1000 nM; ED50 [12]: 22 µmol/kg
2 | C=CCN1CC[C@@H]2c3cccc(O)c3CC[C@H]21 (racemic) | 2.1 | 67 | 29 | 8 | 65 | 12 | 6 | 4 | 53 | 82 | 109 | 83 | 5 | ED50 [18]: 0.97 µmol/kg; Control [20]: 73%; Control [23]: -12%; Intrinsic activity [24]: 44%; Ki [25]: 4.1 nM; ED50 [12]: 113 µmol/kg
3 | COc1cccc2c1CC[C@@H]1[C@H]2CCN1CC1CC1 (racemic) | – | – | – | – | – | – | – | – | – | – | – | – | – | Control [30]: -15% and -7%; Ki [31]: > 10000 nM
4 | C=CCN1CC[C@@H]2c3ccccc3CC[C@H]21 (racemic) | 4.5 | – | – | – | – | – | – | – | – | – | – | – | – | Control [32]: -7%; Control [33]: 26%; ED50 [34]: 45 µmol/kg; Ki [35]: > 1000 nM
5 | C=CCN1CC[C@H]2c3c(O)cccc3CC[C@H]21 (racemic) | – | 8 | 78 | 69 | 56 | 135 | 11 | 63 | 32 | 68 | 46 | 62 | 54 | Ki [36]: 153 nM
6 | C=CCN1CCC2c3cccc(O)c3CC[C@H]21 (single isomer, unassigned; (-)) | – | 62 | 97 | 23 | 110 | 73 | 7 | 8 | 3 | 115 | 54 | 105 | 22 | Ki [31]: 49 nM; Control [20]: 45%; Control [23]: -0.3%; Intrinsic activity [24]: 22%; Ki [25]: 108 nM
7 | O=C(CCCN1CCC(O)(c2ccc(Cl)cc2)CC1)c1ccc(F)cc1 [HALOPERIDOL] | – | – | – | – | – | – | – | – | – | – | – | – | – | Control [37]: -7%
